In ChEMBL document CHEMBL1201862, “PubChem BioAssay data set” (2004):
Active and inactive are the calls of the source.

Experiments:
[1] = target: T1, Estrogen receptor beta (Homo sapiens, UniProt Q92731);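 further: recombinant ER-beta bound to coactivator SRC1 peptide in presence of estradiol agonist; inhibitors block coactivator peptide binding and lower the FRET signal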
[2] = alpha-synuclein stem-loop luciferase translation blockers – H4 neuroglioma cells, luminescence, confirmation (AID 1988); assay type: functional, cell-based
[3] = target: Peroxisome proliferator-activated receptor gamma/Nuclear receptor corepressor 2 (Homo sapiens, UniProt P37231+Q9Y618); assay: Counterscreen for NR2E3 inverse agonists: TR-FRET-based biochemical high throughput dose response assay to identify inverse agonists of the interaction between peroxisome proliferator-activated receptor gamma (PPARg) and nuclear receptor co-repressor 2 (NCOR2).; assay type: functional
[4] = target: Photoreceptor-specific nuclear receptor (Homo sapiens, UniProt Q9Y5X4); assay: ligands suppressing NR2E3 nuclear receptor activity – biochemical, TR-FRET, dose response (AID 463256); assay type: functional
[5] = system: HEK293; assay: cells; settings: Homo sapiens
[6] = target: Mothers against decapentaplegic homolog 3 (Homo sapiens, UniProt P84022); assay: inhibitors of SMAD-driven TGF-beta signaling – dose response (AID 715); assay type: functional
[7] = Luminescence Cell-Based Dose Response HTS to Identify Inhibitors of 5'UTR Stem-Loop Driven Prion Protein mRNA Translation in H4 Neuroglioblastoma Cells. [Related pubchem assays: 1827 (Project Summary), 1813 (Primary HTS)]; assay type: functional
[8] = target: T1, Estrogen receptor beta; assay: blockers of SRC-3 recruitment to ERβ – biochemical, ELISA, streptavidin-HRP readout, orthogonal assay, confirmation (AID 1060)
[9] = target: Protein-tyrosine kinase 2-beta (Homo sapiens, UniProt Q14289);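 further: potency of inhibitors of PYK2 kinase phosphorylation of poly-GT substrate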
[10] = target: T2, Apoptotic protease-activating factor 1 (Homo sapiens, UniProt O14727); assay type: functional
T2 sequence (O14727 whole entry): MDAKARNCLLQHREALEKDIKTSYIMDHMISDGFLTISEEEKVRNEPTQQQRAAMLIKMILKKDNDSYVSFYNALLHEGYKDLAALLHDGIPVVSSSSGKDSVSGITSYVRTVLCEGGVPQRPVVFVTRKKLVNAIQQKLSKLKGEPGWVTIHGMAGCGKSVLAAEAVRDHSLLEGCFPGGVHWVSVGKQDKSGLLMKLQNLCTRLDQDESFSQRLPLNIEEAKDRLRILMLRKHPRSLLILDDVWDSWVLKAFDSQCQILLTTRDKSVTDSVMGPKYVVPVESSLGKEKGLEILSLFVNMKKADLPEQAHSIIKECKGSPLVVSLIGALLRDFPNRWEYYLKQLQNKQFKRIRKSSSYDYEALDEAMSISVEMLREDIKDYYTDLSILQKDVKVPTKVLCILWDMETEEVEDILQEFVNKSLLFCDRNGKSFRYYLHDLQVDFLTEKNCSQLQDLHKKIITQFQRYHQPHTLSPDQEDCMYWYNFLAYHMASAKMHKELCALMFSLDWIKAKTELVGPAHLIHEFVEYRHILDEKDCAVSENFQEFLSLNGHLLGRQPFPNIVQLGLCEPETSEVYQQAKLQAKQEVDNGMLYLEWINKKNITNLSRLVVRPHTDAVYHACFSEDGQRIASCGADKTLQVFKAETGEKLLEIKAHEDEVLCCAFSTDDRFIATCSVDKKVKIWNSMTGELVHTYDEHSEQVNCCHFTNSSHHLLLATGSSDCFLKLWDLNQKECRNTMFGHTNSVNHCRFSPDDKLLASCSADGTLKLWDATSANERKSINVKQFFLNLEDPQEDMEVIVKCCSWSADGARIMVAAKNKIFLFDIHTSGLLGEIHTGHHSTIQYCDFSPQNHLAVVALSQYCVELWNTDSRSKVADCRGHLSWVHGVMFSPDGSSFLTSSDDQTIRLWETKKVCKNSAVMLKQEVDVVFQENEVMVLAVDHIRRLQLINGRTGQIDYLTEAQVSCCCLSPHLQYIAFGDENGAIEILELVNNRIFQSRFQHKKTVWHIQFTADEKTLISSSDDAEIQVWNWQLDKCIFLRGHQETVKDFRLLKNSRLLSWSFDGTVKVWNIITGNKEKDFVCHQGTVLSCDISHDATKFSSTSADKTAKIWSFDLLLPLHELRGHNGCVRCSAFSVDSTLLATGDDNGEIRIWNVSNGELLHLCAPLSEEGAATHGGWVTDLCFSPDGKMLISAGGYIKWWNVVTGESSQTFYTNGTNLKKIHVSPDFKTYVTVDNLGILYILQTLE

[11] = target: T2, Apoptotic protease-activating factor 1; assay: SAR analysis of small molecule inhibitors of Apaf-1 in a Fluorescent assay.; assay type: functional; settings: read-out: IC50_Mean
[12] = luciferase reporter signal suppression in cells – H4 neuroglioma cells, luminescence, dose response (AID 1990); assay type: functional, cell-based
[13] = viability loss in HEK293T cells – cell-based, cherry-picks, cytotoxicity control for HIV Vif inhibitor project, dose response (AID 652208); assay type: functional
[14] = system: HEK293; assay: cells; settings: Homo sapiens; remark: listed apart in the source
[15] = target: Macrophage colony-stimulating factor 1 receptor (Homo sapiens, UniProt P07333); assay type: functional;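 further: value comes from the Navigating the Kinome screening panel, CSF1R member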
[16] = target: Dual specificity tyrosine-phosphorylation-regulated kinase 1A (Homo sapiens, UniProt Q13627); assay type: functional;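 further: measured against DYRK1A as one member of a broad kinome profiling panel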
[17] = target: Tyrosine-protein kinase receptor TYRO3 (Homo sapiens, UniProt Q06418); assay type: functional;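 further: TYRO3 value obtained as one member of a kinome-wide profiling panel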
[18] = target: Activated CDC42 kinase 1 (Homo sapiens, UniProt Q07912); assay: Navigating the Kinome. Panel member name: ACK1; assay type: functional
[19] = target: Protein kinase C theta type (Homo sapiens, UniProt Q04759); assay: Navigating the Kinome. Panel member name: PRKCQ; assay type: functional
[20] = target: cAMP-dependent protein kinase catalytic subunit alpha (Homo sapiens, UniProt P17612); assay type: functional
[21] = target: Serine/threonine-protein kinase pim-1 (Homo sapiens, UniProt P11309); assay type: functional
[22] = target: Cyclin-dependent kinase 8 (Homo sapiens, UniProt P49336); assay: Navigating the Kinome. Panel member name: CDK8; assay type: functional
[23] = target: Aurora kinase A (Homo sapiens, UniProt O14965); assay type: functional;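 further: value from the Navigating the Kinome kinase panel profiling, panel entry STK6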
[24] = target: Death-associated protein kinase 3 (Homo sapiens, UniProt O43293); assay type: functional;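 further: measured as one member of a kinome-wide profiling panel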
[25] = target: Serine/threonine-protein kinase Nek2 (Homo sapiens, UniProt P51955); assay type: functional
[26] = target: High affinity nerve growth factor receptor (Homo sapiens, UniProt P04629); assay type: functional;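 further: NTRK1 tested as one member of a kinome-wide profiling panel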
[27] = target: Platelet-derived growth factor receptor beta (Homo sapiens, UniProt P09619); assay type: functional;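 further: value comes from a kinome panel, with PDGFRB tested as one panel member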
[28] = target: Cyclin-dependent kinase 7 (Homo sapiens, UniProt P50613); assay type: functional;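 further: value comes from a kinome-wide kinase profiling panel in which CDK7 is one member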
[29] = target: Inhibitor of nuclear factor kappa-B kinase subunit epsilon (Homo sapiens, UniProt Q14164); assay: Navigating the Kinome. Panel member name: IKBKE; assay type: functional
[30] = target: Dual specificity protein kinase CLK2 (Homo sapiens, UniProt P49760); assay type: functional
[31] = target: cAMP-dependent protein kinase catalytic subunit PRKX (Homo sapiens, UniProt P51817); assay type: functional
[32] = target: Cyclin-dependent kinase 9 (Homo sapiens, UniProt P50750); assay type: functional;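 further: value from the CDK9 entry of a kinome-spanning kinase panel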
[33] = target: Mitogen-activated protein kinase kinase kinase kinase 4 (Homo sapiens, UniProt O95819); assay type: functional
[34] = target: Platelet-derived growth factor receptor alpha (Homo sapiens, UniProt P16234); assay: Navigating the Kinome. Panel member name: PDGFRA; assay type: functional
[35] = target: Dual specificity protein kinase CLK4 (Homo sapiens, UniProt Q9HAZ1); assay type: functional
[36] = target: Mitogen-activated protein kinase 8 (Homo sapiens, UniProt P45983); assay type: functional;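 further: value comes from one member of a kinome-wide kinase profiling panel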
[37] = target: Vascular endothelial growth factor receptor 2 (Homo sapiens, UniProt P35968); assay type: functional
[38] = target: Leucine-rich repeat serine/threonine-protein kinase 2 (Homo sapiens, UniProt Q5S007); assay type: functional;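 further: value from a broad kinome-wide panel profiling study in which LRRK2 was one of the kinases tested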
[39] = target: Calcium/calmodulin-dependent protein kinase type II subunit alpha (Homo sapiens, UniProt Q9UQM7); assay: Navigating the Kinome. Panel member name: CAMK2A; assay type: functional
[40] = target: Activin receptor type-1 (Homo sapiens, UniProt Q04771); assay: Navigating the Kinome. Panel member name: ACVR1; assay type: functional
[41] = target: Fibroblast growth factor receptor 1 (Homo sapiens, UniProt P11362); assay type: functional
[42] = target: Serine/threonine-protein kinase PLK3 (Homo sapiens, UniProt Q9H4B4); assay type: functional
[43] = target: Serine/threonine-protein kinase D3 (Homo sapiens, UniProt O94806); assay type: functional;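 further: determined within a kinase panel screen, with PRKCN as the panel member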
[44] = target: Serine/threonine-protein kinase PLK1 (Homo sapiens, UniProt P53350); assay type: functional;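 further: PLK1 measured as one member of a kinome-wide profiling panel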
[45] = target: Leukocyte tyrosine kinase receptor (Homo sapiens, UniProt P29376); assay: Navigating the Kinome. Panel member name: LTK; assay type: functional
[46] = target: Rho-associated protein kinase 1 (Homo sapiens, UniProt Q13464); assay type: functional;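 further: measured within a broad kinome-wide panel profiling many kinases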
[47] = target: RAC-gamma serine/threonine-protein kinase (Homo sapiens, UniProt Q9Y243); assay type: functional
[48] = target: LIM domain kinase 1 (Homo sapiens, UniProt P53667); assay: Navigating the Kinome. Panel member name: LIMK1; assay type: functional
[49] = target: Dual specificity tyrosine-phosphorylation-regulated kinase 1B (Homo sapiens, UniProt Q9Y463); assay: Navigating the Kinome. Panel member name: DYRK1B; assay type: functional
[50] = target: 5'-AMP-activated protein kinase catalytic subunit alpha-1 (Homo sapiens, UniProt Q13131); assay type: functional
[51] = target: RAC-alpha serine/threonine-protein kinase (Homo sapiens, UniProt P31749); assay type: functional;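 further: AKT1 affinity measured as one member of a kinome-wide kinase profiling panel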
[52] = target: Serine/threonine-protein kinase pim-3 (Homo sapiens, UniProt Q86V86); assay type: functional;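 further: value obtained as one member of a broad kinase panel profiling effort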
[53] = target: Aurora kinase B (Homo sapiens, UniProt Q96GD4); assay type: functional
[54] = target: ALK tyrosine kinase receptor (Homo sapiens, UniProt Q9UM73); assay type: functional;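 further: ALK tested as one member of a kinase panel screen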
[55] = target: Cyclin-dependent kinase 19 (Homo sapiens, UniProt Q9BWU1); assay: Navigating the Kinome. Panel member name: CDC2L6; assay type: functional
[56] = target: Hepatocyte growth factor receptor (Homo sapiens, UniProt P08581); assay type: functional;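 further: kinase panel profiling across the kinome, with MET as the panel member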
[57] = target: Glycogen synthase kinase-3 beta (Homo sapiens, UniProt P49841); assay type: functional;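 further: value comes from a broad kinome profiling panel, with GSK3B as the panel member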
[58] = target: Receptor-type tyrosine-protein kinase FLT3 (Homo sapiens, UniProt P36888); assay type: functional;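 further: FLT3 was tested as one member of a kinome-wide kinase panel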

Fibroblast growth factor receptor 1, sequence (P11362 whole entry): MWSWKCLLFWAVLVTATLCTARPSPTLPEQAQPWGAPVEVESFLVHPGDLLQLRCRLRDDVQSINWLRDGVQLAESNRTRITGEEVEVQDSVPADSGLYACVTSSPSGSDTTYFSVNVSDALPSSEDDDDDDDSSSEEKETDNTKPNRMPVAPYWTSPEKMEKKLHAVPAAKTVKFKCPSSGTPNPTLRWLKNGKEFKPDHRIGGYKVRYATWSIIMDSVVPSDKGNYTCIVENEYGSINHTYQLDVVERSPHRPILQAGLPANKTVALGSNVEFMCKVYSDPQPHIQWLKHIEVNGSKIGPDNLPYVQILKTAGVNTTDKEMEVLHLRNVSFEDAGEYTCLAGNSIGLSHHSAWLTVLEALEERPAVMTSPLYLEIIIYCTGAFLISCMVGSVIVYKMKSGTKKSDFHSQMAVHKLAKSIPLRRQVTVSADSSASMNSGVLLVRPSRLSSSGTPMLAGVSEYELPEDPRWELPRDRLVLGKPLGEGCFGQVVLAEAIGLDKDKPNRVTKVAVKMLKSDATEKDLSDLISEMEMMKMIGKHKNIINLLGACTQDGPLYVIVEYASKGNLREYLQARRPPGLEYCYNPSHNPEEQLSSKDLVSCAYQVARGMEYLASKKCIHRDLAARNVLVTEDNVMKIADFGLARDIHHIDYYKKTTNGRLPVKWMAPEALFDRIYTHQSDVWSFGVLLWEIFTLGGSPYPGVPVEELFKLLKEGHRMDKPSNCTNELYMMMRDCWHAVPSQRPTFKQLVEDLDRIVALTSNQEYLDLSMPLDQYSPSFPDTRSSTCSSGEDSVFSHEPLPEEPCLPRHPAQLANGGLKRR
Dual specificity tyrosine-phosphorylation-regulated kinase 1B, sequence (Q9Y463 whole entry): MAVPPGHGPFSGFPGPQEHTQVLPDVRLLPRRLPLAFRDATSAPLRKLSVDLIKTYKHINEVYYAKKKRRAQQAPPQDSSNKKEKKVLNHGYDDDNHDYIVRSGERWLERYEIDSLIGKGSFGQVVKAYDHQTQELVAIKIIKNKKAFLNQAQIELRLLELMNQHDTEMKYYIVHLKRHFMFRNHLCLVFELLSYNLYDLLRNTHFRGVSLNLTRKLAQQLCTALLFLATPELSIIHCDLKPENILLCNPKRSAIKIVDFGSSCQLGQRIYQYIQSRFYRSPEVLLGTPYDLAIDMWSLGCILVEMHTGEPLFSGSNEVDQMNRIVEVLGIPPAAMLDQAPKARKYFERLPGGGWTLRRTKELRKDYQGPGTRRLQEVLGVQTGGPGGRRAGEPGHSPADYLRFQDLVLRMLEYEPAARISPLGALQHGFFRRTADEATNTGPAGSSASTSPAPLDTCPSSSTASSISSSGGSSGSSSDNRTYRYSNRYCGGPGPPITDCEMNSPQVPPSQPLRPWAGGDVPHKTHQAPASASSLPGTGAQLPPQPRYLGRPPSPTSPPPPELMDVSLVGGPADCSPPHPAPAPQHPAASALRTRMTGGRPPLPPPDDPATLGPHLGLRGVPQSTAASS
High affinity nerve growth factor receptor, sequence (P04629 whole entry): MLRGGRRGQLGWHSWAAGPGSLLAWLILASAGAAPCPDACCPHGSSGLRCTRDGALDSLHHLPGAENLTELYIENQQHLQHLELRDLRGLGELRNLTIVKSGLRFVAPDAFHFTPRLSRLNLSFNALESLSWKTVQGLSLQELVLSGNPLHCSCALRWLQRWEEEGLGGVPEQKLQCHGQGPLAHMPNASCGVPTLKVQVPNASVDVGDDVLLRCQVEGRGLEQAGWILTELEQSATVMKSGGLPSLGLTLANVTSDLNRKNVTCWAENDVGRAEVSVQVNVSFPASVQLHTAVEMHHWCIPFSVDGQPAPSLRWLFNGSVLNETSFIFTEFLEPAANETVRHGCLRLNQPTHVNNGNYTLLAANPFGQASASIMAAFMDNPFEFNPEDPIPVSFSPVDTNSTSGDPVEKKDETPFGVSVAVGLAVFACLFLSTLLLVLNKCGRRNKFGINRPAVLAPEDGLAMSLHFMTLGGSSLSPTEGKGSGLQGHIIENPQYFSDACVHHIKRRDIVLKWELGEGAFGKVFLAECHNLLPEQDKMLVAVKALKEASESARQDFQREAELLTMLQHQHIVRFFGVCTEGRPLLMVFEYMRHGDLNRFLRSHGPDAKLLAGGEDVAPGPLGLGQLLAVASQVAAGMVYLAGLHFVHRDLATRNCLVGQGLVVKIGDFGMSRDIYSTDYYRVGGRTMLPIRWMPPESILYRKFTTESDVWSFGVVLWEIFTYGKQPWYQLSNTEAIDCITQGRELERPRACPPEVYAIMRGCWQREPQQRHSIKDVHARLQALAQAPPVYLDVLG
Serine/threonine-protein kinase pim-1, sequence (P11309 whole entry): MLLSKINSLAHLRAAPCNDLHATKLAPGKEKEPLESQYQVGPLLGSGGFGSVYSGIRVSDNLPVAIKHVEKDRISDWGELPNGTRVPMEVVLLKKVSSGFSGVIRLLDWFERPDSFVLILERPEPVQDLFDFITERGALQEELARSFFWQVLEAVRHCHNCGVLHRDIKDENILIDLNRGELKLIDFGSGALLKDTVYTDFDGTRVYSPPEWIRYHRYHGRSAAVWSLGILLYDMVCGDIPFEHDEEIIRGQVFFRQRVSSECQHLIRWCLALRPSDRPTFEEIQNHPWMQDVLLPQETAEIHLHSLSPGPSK
Mitogen-activated protein kinase 8, sequence (P45983 whole entry): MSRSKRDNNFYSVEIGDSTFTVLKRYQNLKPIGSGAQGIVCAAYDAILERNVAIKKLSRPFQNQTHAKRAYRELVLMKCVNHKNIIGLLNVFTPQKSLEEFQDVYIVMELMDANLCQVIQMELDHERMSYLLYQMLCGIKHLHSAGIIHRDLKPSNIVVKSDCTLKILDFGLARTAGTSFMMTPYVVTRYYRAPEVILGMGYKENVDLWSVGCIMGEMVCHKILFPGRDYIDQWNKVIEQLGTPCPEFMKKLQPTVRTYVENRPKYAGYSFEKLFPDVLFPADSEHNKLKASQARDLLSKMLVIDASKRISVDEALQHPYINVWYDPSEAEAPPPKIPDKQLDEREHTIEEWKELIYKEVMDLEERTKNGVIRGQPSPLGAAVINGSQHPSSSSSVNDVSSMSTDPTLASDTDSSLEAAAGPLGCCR
T1 sequence (Q92731 whole entry): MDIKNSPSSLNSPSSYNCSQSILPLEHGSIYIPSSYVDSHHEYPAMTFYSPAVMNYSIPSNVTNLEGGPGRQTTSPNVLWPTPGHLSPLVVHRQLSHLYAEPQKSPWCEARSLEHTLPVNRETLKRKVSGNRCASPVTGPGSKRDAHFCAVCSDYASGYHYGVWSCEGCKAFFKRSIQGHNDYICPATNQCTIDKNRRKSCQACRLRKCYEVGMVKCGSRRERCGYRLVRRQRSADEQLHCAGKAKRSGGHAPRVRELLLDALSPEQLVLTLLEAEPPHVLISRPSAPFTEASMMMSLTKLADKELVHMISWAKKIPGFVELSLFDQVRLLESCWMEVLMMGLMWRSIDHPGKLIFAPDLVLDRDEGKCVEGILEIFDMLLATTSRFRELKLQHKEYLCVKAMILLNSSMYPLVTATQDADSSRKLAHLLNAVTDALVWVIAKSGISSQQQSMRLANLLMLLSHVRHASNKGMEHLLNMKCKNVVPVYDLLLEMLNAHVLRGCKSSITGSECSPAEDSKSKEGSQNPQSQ
Dual specificity protein kinase CLK2, sequence (P49760 whole entry): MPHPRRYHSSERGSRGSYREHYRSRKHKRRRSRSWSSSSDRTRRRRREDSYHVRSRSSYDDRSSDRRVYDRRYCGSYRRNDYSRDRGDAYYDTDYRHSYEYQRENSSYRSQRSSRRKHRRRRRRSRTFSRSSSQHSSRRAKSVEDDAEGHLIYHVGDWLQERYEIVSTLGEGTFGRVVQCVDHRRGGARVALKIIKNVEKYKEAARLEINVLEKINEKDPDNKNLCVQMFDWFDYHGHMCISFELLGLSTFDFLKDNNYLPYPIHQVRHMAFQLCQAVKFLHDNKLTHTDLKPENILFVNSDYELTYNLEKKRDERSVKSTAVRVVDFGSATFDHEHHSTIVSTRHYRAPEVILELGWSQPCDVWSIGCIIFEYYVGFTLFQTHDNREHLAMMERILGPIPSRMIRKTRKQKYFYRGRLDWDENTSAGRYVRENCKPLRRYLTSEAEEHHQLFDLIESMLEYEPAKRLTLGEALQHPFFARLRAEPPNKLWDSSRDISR
cAMP-dependent protein kinase catalytic subunit PRKX, sequence (P51817 whole entry): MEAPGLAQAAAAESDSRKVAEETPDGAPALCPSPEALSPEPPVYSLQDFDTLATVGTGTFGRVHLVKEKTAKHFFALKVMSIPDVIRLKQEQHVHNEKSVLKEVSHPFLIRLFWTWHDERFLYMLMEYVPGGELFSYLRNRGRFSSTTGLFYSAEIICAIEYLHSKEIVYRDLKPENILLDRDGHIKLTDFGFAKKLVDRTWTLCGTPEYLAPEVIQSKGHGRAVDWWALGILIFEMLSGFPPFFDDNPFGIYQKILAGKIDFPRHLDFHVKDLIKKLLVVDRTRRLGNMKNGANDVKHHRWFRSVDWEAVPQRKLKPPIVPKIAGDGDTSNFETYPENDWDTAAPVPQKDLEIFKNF
Cyclin-dependent kinase 9, sequence (P50750 whole entry): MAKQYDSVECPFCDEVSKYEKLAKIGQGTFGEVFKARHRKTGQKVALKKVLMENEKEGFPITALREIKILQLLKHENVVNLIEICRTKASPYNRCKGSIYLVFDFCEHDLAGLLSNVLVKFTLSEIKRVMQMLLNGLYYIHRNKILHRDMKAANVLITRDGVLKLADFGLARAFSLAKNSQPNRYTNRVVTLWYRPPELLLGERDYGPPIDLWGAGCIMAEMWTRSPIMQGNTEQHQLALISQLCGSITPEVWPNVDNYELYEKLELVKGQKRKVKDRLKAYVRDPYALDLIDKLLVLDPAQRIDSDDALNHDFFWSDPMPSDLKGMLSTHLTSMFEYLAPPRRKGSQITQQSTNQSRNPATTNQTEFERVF

O=C(Nc1ccc(-c2nc3cc(NC(=O)c4cccs4)ccc3[nH]2)cc1)c1cccs1
inactive: EC50 [5] > 59.6 µM | EC50 [14] > 59.6 µM
10.5 µM (not active): IC50 [3]
> 109 µM (not active): IC50 [8]
64.4 µM (not active): IC50 [6]
active: IC50 [1] 2.61 µM | EC50 [2] 0.275 µM | IC50 [4] 9.36 µM | EC50 [7] 40.1 µM | IC50 [9] 3.97 µM | IC50 [10] 8.21 µM | IC50 [11] 8.37 µM | EC50 [12] 0.225 µM | AC50 [13] 23.1 µM

Nc1n[nH]c2nc(Cl)sc12
inactive: Ki [15] > 63.1 µM | Ki [21] > 63.1 µM | Ki [27] > 79.4 µM | Ki [37] > 100 µM | Ki [41] > 63.1 µM | Ki [42] > 79.4 µM | Ki [44] > 79.4 µM | Ki [47] > 100 µM | Ki [51] > 79.4 µM
active: Ki [16] 6.31 µM | Ki [17] 50.1 µM | Ki [18] 79.4 µM | Ki [19] 79.4 µM | Ki [20] 31.6 µM | Ki [22] 15.8 µM | Ki [23] 25.1 µM | Ki [24] 31.6 µM | Ki [25] 20 µM | Ki [26] 25.1 µM | Ki [28] 39.8 µM | Ki [29] 39.8 µM | Ki [30] 39.8 µM | Ki [31] 50.1 µM | Ki [32] 12.6 µM | Ki [33] 50.1 µM | Ki [34] 50.1 µM | Ki [35] 5.01 µM | Ki [36] 63.1 µM | Ki [38] 15.8 µM | Ki [39] 63.1 µM | Ki [40] 6.31 µM | Ki [43] 63.1 µM | Ki [45] 15.8 µM | Ki [46] 39.8 µM | Ki [48] 12.6 µM | Ki [49] 15.8 µM | Ki [50] 39.8 µM | Ki [52] 39.8 µM | Ki [53] 50.1 µM

CS(=O)(=O)c1cccc(-c2cnn3c(C(N)=O)cc(-c4ccccc4)nc23)c1
inactive: Ki [55] > 100 µM
active: Ki [21] 3.98 µM | Ki [26] 2 µM | Ki [54] 5.01 µM | Ki [56] 2.51 µM | Ki [36] 3.98 µM | Ki [57] 1.26 µM | Ki [41] 2 µM | Ki [49] 2 µM | Ki [58] 2.51 µM
